In PubChem BioAssay (NCI):
Where “and” joins values, the source holds several entries; their conditions need not be identical. Equal values may be shown once.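 These data come from cells grown in 96-well plates and exposed to compound for 48 hours at five concentrations. Here, GI50 denotes the concentration required for 50% inhibition of growth. TGI: concentration producing complete growth inhibition.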

Key:
Test in all cases: inhibition of tumour cell growth, NCI panel, 48 h
HCT-15 colon = test system: HCT-15 colon
HL-60(TB) leukemia = test system: HL-60(TB) leukemia
NCI-H522 lung = test system: NCI-H522 lung
NCI/ADR-RES ovarian = test system: NCI/ADR-RES ovarian
OVCAR-4 ovarian = test system: OVCAR-4 ovarian
PC-3 prostate = test system: PC-3 prostate
SF-539 CNS = test system: SF-539 CNS
SR leukemia = test system: SR leukemia
U251 CNS = test system: U251 CNS
UO-31 renal = test system: UO-31 renal

SMILES	GI50 (HCT-15 colon)	TGI (HCT-15 colon)	GI50 (HL-60(TB) leukemia)	TGI (HL-60(TB) leukemia)	GI50 (NCI-H522 lung)	TGI (NCI-H522 lung)	GI50 (NCI/ADR-RES ovarian)	TGI (NCI/ADR-RES ovarian)	GI50 (OVCAR-4 ovarian)	TGI (OVCAR-4 ovarian)	GI50 (PC-3 prostate)	TGI (PC-3 prostate)	GI50 (SF-539 CNS)	TGI (SF-539 CNS)	GI50 (SR leukemia)	TGI (SR leukemia)	GI50 (U251 CNS)	TGI (U251 CNS)	GI50 (UO-31 renal)	TGI (UO-31 renal)
O=C(O)c1ccc(N/C=C2\C(=O)c3ccccc3OC2O)cc1O (stereo not given)	6.17 µg/mL	26.6 µg/mL	9.35 µg/mL	> 150 µg/mL	28 µg/mL	62.9 µg/mL	22.3 µg/mL	78.6 µg/mL	20.6 µg/mL	> 150 µg/mL	31.6 µg/mL	107 µg/mL	16.5 µg/mL	39.1 µg/mL	5.21 µg/mL	41 µg/mL	17.2 µg/mL	45.1 µg/mL	6.68 µg/mL	36.4 µg/mL
CC(=O)O/N=C1/C(c2c(O)[nH]c3cc(Br)ccc23)=Nc2ccccc21	0.962 µM	2.72 µM	1.88 µM	4.37 µM	1.56 µM	3.68 µM	1.73 µM	4.59 µM	1.6 µM	3.93 µM	1.33 µM	3.51 µM	0.818 µM	3.13 µM	1.63 µM	5.9 µM	1.72 µM	5.63 µM	0.653 µM	2.4 µM
NS(=O)(=O)c1cccc(N=Cc2c(O)[nH]c3ccccc23)c1	> 25 µM	> 25 µM	> 25 µM	> 25 µM	24.4 µM	> 25 µM	> 25 µM	> 25 µM	> 25 µM	> 25 µM	> 25 µM	> 25 µM	> 25 µM	> 25 µM	> 25 µM	> 25 µM	> 25 µM	> 25 µM	> 22.7 µM	> 25 µM
Cc1cc(Cc2cc(C)cc(C(C)(C)C)c2O)c(O)c(C(C)(C)C)c1	4.29 µM	14.5 µM	10.5 µM	> 100 µM	4.16 µM	14.6 µM	10.1 µM	21.8 µM	11.6 µM	23.9 µM	5.15 µM	18.6 µM	13.3 µM	26 µM	4.46 µM	45.9 µM	5.74 µM	17.5 µM	4.58 µM	19 µM
COc1cccc(/C=C/c2cnc3ccccc3n2)c1OC		92.7 µM		> 100 µM		53.5 µM		60.1 µM		> 100 µM		> 100 µM		> 100 µM		> 100 µM		> 100 µM		> 100 µM
N#CCc1ncc(-c2ccc(C(F)(F)F)cc2)c(NC2CCCCCC2)n1	> 10 µM	> 10 µM	> 10 µM	> 10 µM	> 10 µM	> 10 µM	> 10 µM	> 10 µM	> 10 µM	> 10 µM	> 10 µM	> 10 µM	> 10 µM	> 10 µM	> 10 µM	> 10 µM	> 10 µM	> 10 µM	> 10 µM	> 10 µM
C=CCC1(O)c2cccc(NCCO)c2C(=O)c2c(NCCO)cccc21	> 100 µM	> 100 µM	> 100 µM	> 100 µM	> 100 µM	> 100 µM	> 100 µM	> 100 µM	> 100 µM	> 100 µM	> 100 µM	> 100 µM	> 100 µM	> 100 µM	> 100 µM	> 100 µM	> 100 µM	> 100 µM	95.7 µM	> 100 µM
O=C(O)c1cc2cc(OCc3ccccc3)c(OCc3ccccc3)cc2[nH]1	16.3 µM	36.4 µM	22.9 µM	> 100 µM	24 µM	62.2 µM	20.2 µM	49.1 µM	34.9 µM	> 100 µM	23 µM	68.5 µM	19.9 µM	44 µM	21.8 µM	> 100 µM	17.7 µM	37 µM	13.8 µM	27.6 µM
COc1ccc(/C=C/C(=O)Oc2cc(O)cc(O)c2)cc1		65.9 µM		55.5 µM		> 100 µM		> 100 µM		> 100 µM		> 100 µM		> 100 µM		> 100 µM		> 100 µM		> 100 µM
S=C1Nc2ccc(Cl)cc2C2(c3ccccc3)N3CCN=C3NN12 (stereo not given)	34 µM	> 100 µM	22.7 µM	53 µM	21.7 µM	48.1 µM	48.8 µM	> 100 µM	26.1 µM	> 100 µM	39.3 µM	> 100 µM	36.7 µM	> 100 µM	23.7 µM	88.8 µM	35.1 µM	> 100 µM	37.5 µM	> 100 µM
c1cn2cc(-c3ccc4cn[nH]c4c3)nc(Nc3ccc(N4CCOCC4)cc3)c2n1	11.7 µM	41.1 µM	> 100 µM	> 100 µM	12.3 µM	39 µM	11.1 µM	32.4 µM	7.78 µM	36.2 µM	14.7 µM	35.4 µM	6.54 µM	23.1 µM	6.66 µM	27.5 µM	10 µM	21.6 µM	14.6 µM	34.8 µM
O=c1[nH]cnc2[nH]ncc12	143 µM	> 5000 µM	> 79.9 µM and 108 µM	> 3420 µM	> 84.4 µM and 272 µM	> 5000 µM	214 µM	> 1250 µM	160 µM	> 3050 µM	253 µM	> 5000 µM	2010 µM	> 5000 µM	480 µM	> 2670 µM	1560 µM	> 4470 µM	> 64.9 µM and 525 µM	> 5000 µM
c1ccc(-n2nnnc2-c2cccc3ccccc23)cc1	0.348 µM	> 100 µM	0.365 µM	1.7 µM	0.272 µM	2.71 µM	0.279 µM	1.61 µM	11.4 µM	> 100 µM	1.14 µM	> 100 µM	0.445 µM	3.43 µM	0.438 µM	74.4 µM	0.536 µM	> 48.1 µM	2.16 µM	61.1 µM
